Laboratory results published in ChEMBL document CHEMBL1136491, “1-aryl-6,7-methylenedioxy-3H-quinazolin-4-ones as anticonvulsant agents” (Bioorg Med Chem Lett, 2003).

Legend:
[1] = biological target: Glutamate receptor ionotropic, AMPA (Rattus norvegicus, UniProt P19490+P19491+P19492+P19493); experiment: Ability to displace [3H]CP-526427 (3 nM) from binding site of the Ionotropic glutamate receptor AMPA in rat forebrain membrane; type: cell membranes
Mus musculus [2] = experiment: Anticonvulsant activity against audiogenic tonus seizure 30 min after intraperitoneal administration (3.3-200 umol/kg) in DBA/2 mice; type: functional; conditions: ip, 0.5 h
Mus musculus [3] = experiment: Anticonvulsant activity against audiogenic clonus seizure 30 min after intraperitoneal administration (3.3-200 umol/kg) in DBA/2 mice; type: functional; conditions: ip, 0.5 h
Mus musculus [4] = experiment: Anticonvulsant activity against audiogenic clonus seizure 15 min after intraperitoneal administration (3.3-200 umol/kg) in DBA/2 mice; type: functional; conditions: ip, 0.25 h

SMILES	IC50 [1]	ED50 (Mus musculus [2])	ED50 (Mus musculus [3])	ED50 (Mus musculus [4])
Oc1nc(-c2ccc(Br)cc2)nc2cc3c(cc12)OCO3		36.6 µmol/kg	68.3 µmol/kg	
Nc1ccc(-c2nc(S)c3cc4c(cc3n2)OCO4)cc1		17.9 µmol/kg	37.8 µmol/kg	79.4 µmol/kg
O=C1Cc2cc3c(cc2C(c2ccc(F)cc2)=NN1)OCO3		63.8 µmol/kg	89.8 µmol/kg	
Nc1ccc(-c2nnc(O)c3cc4c(cc23)OCO4)cc1	> 100 µM			

Second part, led by results:

IC50 [1]	SMILES	ED50 (Mus musculus [2])	ED50 (Mus musculus [3])	ED50 (Mus musculus [4])
> 100 µM	Oc1nc(-c2ccc(F)cc2)nc2cc3c(cc12)OCO3	27.8 µmol/kg	32.7 µmol/kg	
> 100 µM	Oc1nc(-c2ccc(Cl)cc2)nc2cc3c(cc12)OCO3	21.6 µmol/kg	36.5 µmol/kg	
> 100 µM	Nc1ccc(-c2nc(O)c3cc4c(cc3n2)OCO4)cc1	17.7 µmol/kg	27.8 µmol/kg	
> 100 µM	Oc1nc(-c2ccccc2)nc2cc3c(cc12)OCO3	46.1 µmol/kg	59.5 µmol/kg	
